Measured values taken from PubChem BioAssay AID330 (DTP/NCI, 2004).
Where “and” joins values, the source holds several entries; their conditions need not be identical. Identical values can stand only once. Toxic doses and inconclusive results are not listed.

Tested on: P388 leukemia ip, CD2F1 mice, survival T/C
Assay: NCI In Vivo Anticancer Drug Screen. Data for tumor model P388 Leukemia (intraperitoneal) in CD2F1 (CDF1) mice
Details: endpoint: median survival time, higher = longer survival
How it was run: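 Mice carrying the transplanted tumor received test compound or vehicle. Survival was recorded in each group, and the value is the treated-group measurement divided by that of the vehicle-treated control group.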

[1] = dose: 60.0 mg/kg/injection, schedule: Q01DX005 (ip), vehicle: saline with Tween-80
[2] = dose: 50.0 mg/kg/injection, schedule: Q01DX005 (ip), vehicle: Klucel (hydroxypropylcellulose) (HPC)
[3] = dose: 100.0 mg/kg/injection, schedule: Q01DX005 (ip), vehicle: Klucel (hydroxypropylcellulose) (HPC)
[4] = dose: 200.0 mg/kg/injection, schedule: Q01DX005 (ip), vehicle: Klucel (hydroxypropylcellulose) (HPC)
[5] = dose: 200.0 mg/kg/injection, schedule: Q01DX005 (ip), vehicle: saline with Tween-80
[6] = dose: 100.0 mg/kg/injection, schedule: Q01DX001 (ip), vehicle: Klucel (hydroxypropylcellulose) (HPC)
[7] = dose: 50.0 mg/kg/injection, schedule: Q01DX005 (ip), vehicle: saline with Tween-80
[8] = dose: 100.0 mg/kg/injection, schedule: Q01DX005 (ip), vehicle: saline with Tween-80
[9] = dose: 25.0 mg/kg/injection, schedule: Q01DX009 (ip), vehicle: saline with Tween-80
[10] = dose: 50.0 mg/kg/injection, schedule: Q01DX009 (ip), vehicle: saline with Tween-80

For `O=C(Nc1ccc(Cl)cc1)Nc1nnc2nc(C(C(=O)c3cccc([N+](=O)[O-])c3Cl)c3nc4nnc(NC(=O)Nc5ccc(Cl)cc5)n4[nH]c3=O)c(=O)[nH]n12`, the T/C [1] was 110 % of control, the T/C (dose: 120.0 mg/kg/injection, schedule: Q01DX005 (ip), vehicle: saline with Tween-80) was 101 % of control and the T/C (dose: 240.0 mg/kg/injection, schedule: Q01DX005 (ip), vehicle: saline with Tween-80) was 95 % of control.

For `O=C(c1ccccc1)c1no[n+]([O-])c1C(=O)c1ccccc1`, the T/C (dose: 3.12 mg/kg/injection, schedule: Q01DX009 (ip), vehicle: Klucel (hydroxypropylcellulose) (HPC)) was 102 % of control and 114 % of control and 116 % of control, the T/C (dose: 6.25 mg/kg/injection, schedule: Q01DX009 (ip), vehicle: Klucel (hydroxypropylcellulose) (HPC)) was 100 % of control and 117 % of control and the T/C (dose: 12.5 mg/kg/injection, schedule: Q01DX009 (ip), vehicle: Klucel (hydroxypropylcellulose) (HPC)) was 105 % of control and 123 % of control.

`COC(=O)c1cc(Cl)ccc1NCC(N)c1ccccc1` (centres undefined) was tested, and the T/C (dose: 30.0 mg/kg/injection, schedule: Q01DX005 (ip), vehicle: saline with Tween-80) was 99 % of control and the T/C [1] was 101 % of control and 97 % of control.

For `O=C(Cc1ccccc1)c1ccc(F)cc1`, the T/C (dose: 50.0 mg/kg/injection, schedule: Q01DX009 (ip), vehicle: Klucel (hydroxypropylcellulose) (HPC)) was 98 % of control, the T/C (dose: 100.0 mg/kg/injection, schedule: Q01DX009 (ip), vehicle: Klucel (hydroxypropylcellulose) (HPC)) was 100 % of control and the T/C (dose: 200.0 mg/kg/injection, schedule: Q01DX009 (ip), vehicle: Klucel (hydroxypropylcellulose) (HPC)) was 99 % of control.

For `N#CC(C#N)=CNCC1CC1`, the T/C (dose: 15.0 mg/kg/injection, schedule: Q01DX005 (ip), vehicle: Klucel (hydroxypropylcellulose) (HPC)) was 102 % of control, the T/C (dose: 30.0 mg/kg/injection, schedule: Q01DX005 (ip), vehicle: Klucel (hydroxypropylcellulose) (HPC)) was 100 % of control and the T/C (dose: 60.0 mg/kg/injection, schedule: Q01DX005 (ip), vehicle: Klucel (hydroxypropylcellulose) (HPC)) was 98 % of control and 99 % of control.

In the case of `CNC(=S)c1cccc(-c2ccccn2)n1`, the T/C (dose: 12.5 mg/kg/injection, schedule: Q04DX003 (ip), vehicle: Klucel (hydroxypropylcellulose) (HPC)) was 104 % of control, the T/C (dose: 25.0 mg/kg/injection, schedule: Q04DX003 (ip), vehicle: Klucel (hydroxypropylcellulose) (HPC)) was 113 % of control and the T/C (dose: 50.0 mg/kg/injection, schedule: Q04DX003 (ip), vehicle: Klucel (hydroxypropylcellulose) (HPC)) was 108 % of control and 91 % of control.

In the case of `NC(=S)c1ncn(C2OC(COC=O)C(OC=O)C2OC=O)c1NC=O` (centres undefined), the T/C (dose: 25.0 mg/kg/injection, schedule: Q01DX005 (ip), vehicle: Klucel (hydroxypropylcellulose) (HPC)) was 110 % of control, the T/C [2] was 108 % of control and the T/C [3] was 113 % of control. The T/C [4] was 120 % of control, the T/C [5] was 114 % of control and the T/C (dose: 400.0 mg/kg/injection, schedule: Q01DX005 (ip), vehicle: Klucel (hydroxypropylcellulose) (HPC)) was 100 % of control. For the same molecule, the T/C (dose: 400.0 mg/kg/injection, schedule: Q01DX005 (ip), vehicle: saline with Tween-80) was 97 % of control.

In the case of `CC1Cc2c([nH]c(=O)n(-c3ccccc3)c2=S)O1` (centres undefined), the T/C (dose: 25.0 mg/kg/injection, schedule: Q01DX001 (ip), vehicle: Klucel (hydroxypropylcellulose) (HPC)) was 96 % of control, the T/C (dose: 50.0 mg/kg/injection, schedule: Q01DX001 (ip), vehicle: Klucel (hydroxypropylcellulose) (HPC)) was 112 % of control and the T/C [6] was 100 % of control.

In the case of `O=[N+]([O-])c1ccc(/C=C/S(=O)(=O)Cc2ccccc2)cc1`, the T/C [7] was 105 % of control, the T/C [8] was 100 % of control and the T/C [5] was 96 % of control.

`Cc1ccc(O)c(C(=NCCCCN=C(c2ccccc2)c2cc(C)ccc2O)c2ccccc2)c1` was tested, and the T/C [2] was 99 % of control, the T/C [3] was 94 % of control and the T/C [4] was 99 % of control.

For `Cc1cccc([NH-])n1.Cc1cccc([NH-])n1.Cc1cccc([NH-])n1.Cc1cccc([NH-])n1.[Cl][Rh][Cl]`, the T/C (dose: 6.25 mg/kg/injection, schedule: Q01DX009 (ip), vehicle: DMSO) was 101 % of control, the T/C (dose: 12.5 mg/kg/injection, schedule: Q01DX009 (ip), vehicle: DMSO) was 99 % of control and the T/C (dose: 25.0 mg/kg/injection, schedule: Q01DX009 (ip), vehicle: DMSO) was 101 % of control. For the same molecule, the T/C (dose: 50.0 mg/kg/injection, schedule: Q01DX009 (ip), vehicle: saline) was 101 % of control.

For `COc1cc(C=Nc2ccc(-n3ccnc3C)cc2)ccc1N(CCCl)CCCl`, the T/C (dose: 5.0 mg/kg/injection, schedule: Q01DX009 (ip), vehicle: Klucel (hydroxypropylcellulose) (HPC)) was 170 % of control, the T/C (dose: 10.0 mg/kg/injection, schedule: Q01DX009 (ip), vehicle: Klucel (hydroxypropylcellulose) (HPC)) was 181 % of control and the T/C (dose: 20.0 mg/kg/injection, schedule: Q01DX009 (ip), vehicle: Klucel (hydroxypropylcellulose) (HPC)) was 106 % of control.

In the case of `NC(=S)N1CCCC1`, the T/C [9] was 95 % of control, the T/C [10] was 93 % of control and the T/C (dose: 100.0 mg/kg/injection, schedule: Q01DX009 (ip), vehicle: saline with Tween-80) was 98 % of control. For the same molecule, the T/C (dose: 200.0 mg/kg/injection, schedule: Q01DX009 (ip), vehicle: saline with Tween-80) was 89 % of control.

For `Cc1ccc(S(=O)(=O)OC(C)c2[nH]c(=O)n(C3CCCO3)c(=O)c2F)cc1` (centres undefined), the T/C [7] was 99 % of control, the T/C [8] was 91 % of control and the T/C [5] was 93 % of control.

`CC1OC(O[C@H]2C[C@](O)(C(C)O)Cc3c(O)c4c(c(O)c32)C(=O)c2c(O)cccc2C4=O)CC(NC=O)C1O` (some centres undefined) was tested, and the T/C (dose: 0.16 mg/kg/injection, schedule: Q04DX003 (ip), vehicle: water) was 118 % of control, the T/C (dose: 0.32 mg/kg/injection, schedule: Q04DX003 (ip), vehicle: water) was 113 % of control and the T/C (dose: 0.33 mg/kg/injection, schedule: Q04DX003 (ip), vehicle: water) was 103 % of control. The T/C (dose: 0.65 mg/kg/injection, schedule: Q04DX003 (ip), vehicle: water) was 111 % of control, the T/C (dose: 1.29 mg/kg/injection, schedule: Q04DX003 (ip), vehicle: water) was 115 % of control and the T/C (dose: 2.58 mg/kg/injection, schedule: Q04DX003 (ip), vehicle: water) was 123 % of control.

With `O=S(=O)(c1ccc(NC(=S)N/N=C/c2ccccc2O)cc1)N1CCCCC1` the T/C (dose: 12.5 mg/kg/injection, schedule: Q01DX009 (ip), vehicle: olive oil, sesame oil, peanut oil) was 105 % of control, the T/C (dose: 25.0 mg/kg/injection, schedule: Q01DX009 (ip), vehicle: olive oil, sesame oil, peanut oil) was 96 % of control and the T/C (dose: 50.0 mg/kg/injection, schedule: Q01DX009 (ip), vehicle: olive oil, sesame oil, peanut oil) was 96 % of control. For the same molecule, the T/C (dose: 100.0 mg/kg/injection, schedule: Q01DX009 (ip), vehicle: olive oil, sesame oil, peanut oil) was 91 % of control, the T/C (dose: 200.0 mg/kg/injection, schedule: Q01DX009 (ip), vehicle: olive oil, sesame oil, peanut oil) was 91 % of control and the T/C (dose: 400.0 mg/kg/injection, schedule: Q01DX009 (ip), vehicle: olive oil, sesame oil, peanut oil) was 97 % of control.

`COc1ccc(-c2nn(C)c3c2C(=O)C=CC3=O)cc1OC` was tested, and the T/C [6] was 92 % of control, the T/C (dose: 200.0 mg/kg/injection, schedule: Q01DX001 (ip), vehicle: Klucel (hydroxypropylcellulose) (HPC)) was 106 % of control and the T/C (dose: 400.0 mg/kg/injection, schedule: Q01DX001 (ip), vehicle: Klucel (hydroxypropylcellulose) (HPC)) was 95 % of control.

With `COC(=O)C1(F)C(=O)NC(=O)NC1O` (centres undefined) the T/C (dose: 7.5 mg/kg/injection, schedule: Q01DX005 (ip), vehicle: saline) was 100 % of control, the T/C (dose: 15.0 mg/kg/injection, schedule: Q01DX005 (ip), vehicle: saline) was 102 % of control and the T/C (dose: 30.0 mg/kg/injection, schedule: Q01DX005 (ip), vehicle: saline) was 100 % of control.

With `CCc1nc(N)nc(N)c1-c1ccc(N=[N+]=[N-])c(Cl)c1` the T/C (dose: 100.0 mg/kg/injection, schedule: Q04DX002 (ip), vehicle: saline with Tween-80) was 160 % of control, the T/C (dose: 200.0 mg/kg/injection, schedule: Q04DX002 (ip), vehicle: saline with Tween-80) was 116 % of control and the T/C (dose: 400.0 mg/kg/injection, schedule: Q04DX002 (ip), vehicle: saline with Tween-80) was 90 % of control.

With `CCOC(=O)c1sc(=S)n(CC)c1C` the T/C [7] was 107 % of control and the T/C [8] was 99 % of control.

In the case of `CN1C(=O)C(=C2C=C(c3ccccc3)C(C#N)(c3ccccc3)C(c3ccccc3)=C2)C(=O)N(C)C1=O` (centres undefined), the T/C [2] was 106 % of control, the T/C [3] was 107 % of control and the T/C [4] was 101 % of control.

In the case of `CC(C)COC(=O)C1(N)CCCC1`, the T/C (dose: 100.0 mg/kg/injection, schedule: Q04DX003 (ip), vehicle: saline) was 95 % of control, the T/C (dose: 200.0 mg/kg/injection, schedule: Q04DX003 (ip), vehicle: saline) was 104 % of control and the T/C (dose: 400.0 mg/kg/injection, schedule: Q04DX003 (ip), vehicle: saline) was 100 % of control.

`c1ccc2c(c1)nnn1c3ncccc3nc21` was tested, and the T/C (dose: 12.5 mg/kg/injection, schedule: Q01DX009 (ip), vehicle: saline with Tween-80) was 108 % of control, the T/C [9] was 105 % of control and the T/C [10] was 105 % of control.
